Experimental findings from patent US20260022122A1 (Checkmate Therapeutics Inc., priority 2022, published 2026) are described below.

The test system of test [1] is NAPRT positive cell lines (H1993, H2122, H2030, H1975, H1299, HBEC30). Kind of test: Proliferation inhibition on NAPRT positive lung cancer cell lines (CellTiter-Glo). The test is classed as cell-based. The settings on record: 72 hours. As for the experimental part:
(§1) A compound showing a low IC50 value was selected from the compounds of the above Examples and treated an NAPRT positive or negative lung cancer cell line with various concentrations, and then the change in cell viability for each cell line was measured. The results are presented in a graph (a few materials known as NamPT inhibitors were used as controls). A total of 9 cancer cells lines (three NAPRT negative cell lines: H322, H661, and H1155; and six NAPRT positive cell lines: H1993, H2122, H2030, H1975, H1299, and HBEC30) were used. 5% fetal bovine serum (Gibco, US) and 1% penicillin/streptomycin (Gibco) were added to a medium, and the cells were cultured in a 37° C. constant temperature incubator containing 5% CO2. For compound treatment, each type of cells were seeded at 3×10^3 cells/well in a 96-well plate (Corning) and then incubated in a 37° C. constant temperature incubator containing 5% CO2 for 18 hours. […] Afterwards, the cells were cultured in an incubator containing 5% CO2 at 37° C. for 72 hours. To confirm the effect of inhibiting the proliferation of cancer cells, a CellTiter-Glo Luminescent Cell Viability Assay (Promega) was used. After treating the cells with 10 μL of CellTiter-Glo luciferase reagent and leaving them for 15 minutes at room temperature, the luminescence of each well was measured using EnVision2105 (PerkinElmer). The change in cell viability by the compound diluted at the concentration of each step was converted into a relative % value for the amount of luminescence shown by DMSO treatment. EC50 is expressed as the concentration of each compound that induces 50% of the maximum luminescence level.
(§2) The results of measuring the proliferation inhibition ability of the compound of each Example on nine types of lung cancer cell lines, obtained through the above experiment, are shown in Table 2 in the unit of EC50 (μM). The resulting values are expressed as follows.

The test system of test [2] is NAPRT negative lung cancer cell lines (H322, H661, H1155). Kind of test: Proliferation inhibition on NAPRT negative lung cancer cell lines (CellTiter-Glo). Format: cell-based. The settings on record: 72 hours. As for the experimental part: as §1, §2
The test system of test [3] is NAPRT-negative gastric cancer cell line HGC27. Nature of the test: NAPRT-negative cancer cell xenograft model (% tumor growth inhibition). The test is classed as in vivo. Conditions: 50 mg/kg, orally once a day from day 1 to day 21, HGC27 xenograft in BALB/c nude mice. From the text: Based on the effect of inhibiting proliferation limited to NAPRT-negative cancer cell lines according to the experiment of the proliferation inhibitory effect (EC50) on NAPRT-negative cancer cell lines, the pharmacological effect in a xenograft model using NAPRT-negative cancer cell lines was verified. Five-week-old female BALB/c nude mice were purchased and used in the experiment after acclimation for one week. The cancer cells used in the experiment were a NAPRT-negative gastric cancer cell line HGC27, and cultured in […] medium (Gibco) to which 5% Fetal Bovine Serum (Gibco, US) and 1% penicillin/streptomycin (Gibco) were added. HGC27 was suspended in PBS (Welgene) and transplanted to have 5×10^6 cells into each mouse. After adding Matrigel in the same value, tumors were induced by subcutaneous injection into the right flank using a 1 mL syringe. After 3 weeks of breeding, when the average tumor size was 100 to 150 mm^3, mice were randomly divided into groups of 7 and administered each compound. The compound was prepared in an excipient (0.5% DMSO/2% Tween 80/20% PEG 400/20% b-HPCD in 77.5% DW) as an agent for oral administration, and administered orally once a day from day 1 to day 21 to the mouse model in which a tumor was generated. From day 1 to day 21, the body weight was measured once daily, and the tumor size was measured three times a week. The tumor size was measured using a caliper and calculated using the following formula.
In Mathematical Formula 2, W is a length, and d is a width.
On day 21, all animals were euthanized, blood samples were collected, and tumors were removed. To evaluate blood toxicity, blood was collected from an EDTA-containing blood collection tube, and subjected to a general blood test (complete blood count, CBC) and a blood biochemical test. Isolated tumors were weighed after photographing and a portion was used to measure NAD to verify the on-target efficacy of the compound. To measure NAD, a NAD/NADH Quantitation Colorimetric Kit (K337) produced by BioVision was used.
The pharmacological effect of each compound in the NAPRT-negative cancer cell xenograft models, obtained in this experiment, is shown in Table 3 in the unit of % TGI (tumor growth inhibition).

Test [4] addresses NamPT (Homo sapiens (Human), UniProt P43490). Kind of test: Measurement of NamPT inhibitory ability IC50 (NamPT colorimetric assay kit, Abcam ab221819). The test is classed as biochemical. Conditions: NamPT recombinant protein, WST-1 absorbance at 450 nm; class key in μM. As for the experimental part:
To test the effect of the compound prepared in each Example on the substrate decomposition rate (Vmax/min) mediated by NamPT enzyme, IC50 was calculated. In this experiment, the NamPT colorimetric assay kit (ab221819) produced by Abcam was used, and Graph prism software was used for IC50 calculation. PRPP, ATP, NMNAT1, NamPT recombinant proteins, and various concentrations of the compound of each Example (half-log step dilution from 100 μM) were added to nicotinamide to synthesize nicotinamide adenine dinucleotide (NAD) from the nicotinamide, and a total of 60 μL of the reaction solution was reacted at room temperature for 1 hour. WST-1 formazan converted by NAD generated by adding WST-1 was measured. The result of the reaction was obtained by the following formula by measuring absorbance using EnVision2105 (PerkinElmer) at 450 nm for 60 minutes at 2-minute intervals.
In Mathematical Formula 1, T1 and T2 are arbitrary times, and A1 and A2 represent the absorbance measured at T1 and T2 at 450 nm, respectively.
The results of measuring the NamPT inhibition activity of the compound of each Example obtained through the above experiment are shown in Table 1 in the unit of IC50 (nM), and the result values are expressed as follows.

NamPT, sequence (P43490 whole entry): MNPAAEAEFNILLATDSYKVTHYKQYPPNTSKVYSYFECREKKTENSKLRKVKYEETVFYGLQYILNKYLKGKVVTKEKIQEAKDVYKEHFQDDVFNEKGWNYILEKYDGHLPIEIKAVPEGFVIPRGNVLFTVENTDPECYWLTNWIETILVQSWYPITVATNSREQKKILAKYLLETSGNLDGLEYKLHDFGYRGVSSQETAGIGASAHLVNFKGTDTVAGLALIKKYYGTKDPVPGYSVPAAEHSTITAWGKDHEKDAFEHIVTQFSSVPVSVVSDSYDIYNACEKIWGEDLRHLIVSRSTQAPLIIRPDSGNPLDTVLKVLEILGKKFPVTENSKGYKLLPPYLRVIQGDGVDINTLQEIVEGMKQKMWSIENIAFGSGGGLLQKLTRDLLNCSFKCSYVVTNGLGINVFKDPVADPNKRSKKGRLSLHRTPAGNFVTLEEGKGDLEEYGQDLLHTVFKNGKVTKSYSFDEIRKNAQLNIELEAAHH

As for `O=C(NCc1ccc(-c2nc3ccc(Cl)cc3o2)cc1)c1cnc2nccn2c1` [Example 4, N-[[4-(6-chloro-1,3-benzoxazol-2-yl)phenyl]methyl]imidazo[1,2-a]pyrimidin-6-carboxamide], the values for the EC50 in test [1] and in test [2] were over 101 µM and under 0.05 µM, respectively. In test [3], the “% TGI (Tumor Growth inhibition)” value worked out at 80%. The half-inhibitory concentration (IC50) in test [4] was under 0.05 µM.

Take `Cc1cc2nc(-c3ccc(CNC(=O)c4cnc5nccn5c4)cc3)oc2cc1Cl` [Example 10, N-[[4-(6-chloro-5-methyl-1,3-benzoxazol-2-yl)phenyl]methyl]imidazo[1,2-a]pyrimidin-6-carboxamide]: the EC50 is over 101 µM in test [1] and under 0.05 µM in test [2]. Also, in test [3], the “% TGI (Tumor Growth inhibition)” value came to 61%. Besides, the IC50 in test [4] was under 0.05 µM.

For `Cc1cc2nc(-c3ccc(CNC(=O)c4cnc5nccn5c4)cc3)oc2cc1F` [Example 11, N-[[4-(6-fluoro-5-methyl-1,3-benzoxazol-2-yl)phenyl]methyl]imidazo[1,2-a]pyrimidin-6-carboxamide], the “% TGI (Tumor Growth inhibition)” value in test [3] is 82%. In test [4], the IC50 was under 0.05 µM.

`O=C(NCc1ccc(-c2nc3cc(C(F)(F)F)ccc3o2)cc1)c1cnc2nccn2c1` [Example 13, N-[[4-[5-(trifluoromethyl)-1,3-benzoxazol-2-yl]phenyl]methyl]imidazo[1,2-a]pyrimidin-6-carboxamide]: the results for the EC50 in test [1] and in test [2] were over 101 µM and under 0.05 µM, respectively. Further, in test [3], the “% TGI (Tumor Growth inhibition)” value was determined as 63%. In test [4], the concentration for half-maximal inhibition (IC50) is under 0.05 µM.
